In ChEMBL document CHEMBL5154787 (J Med Chem, 2022):
Blank lines part the entries; values can stand above or below the compound they belong to.

How the values were obtained:
[1] = biological target: Citron Rho-interacting kinase (Homo sapiens, UniProt O14578); test: Inhibition of CRIK (unknown origin)
[2] = Metabolic stability in rat liver microsomes assessed as parent compound remaining at 0.5 uM incubated for 10 mins in presence of NADPH by LC-MS/MS analysis; assay type: ADME, Microsome; details: read-out: Stability
[3] = Cardiotoxicity in aortic ring (unknown origin) assessed as relaxation of phenylephrine induced aortic ring contraction at 10 uM incubated for 1 hr; assay type: toxicity, tissue-based, Aorta; set-up: scale not given: the % may be the effect or the level left; details: human
Cytochrome P450 3A4 = Cytochrome P450 3A4 (Homo sapiens, UniProt P08684); test: Inhibition of CYP3A4 (unknown origin) incubated for 10 mins in presence of NADPH by LC-MS/MS analysis; assay type: ADME
[4] = biological target: Myosin light chain kinase 2, skeletal/cardiac muscle (Homo sapiens, UniProt Q9H1R3); test: Inhibition of MYLK2 (unknown origin)
[5] = biological target: Tyrosine-protein kinase JAK2 (Homo sapiens, UniProt O60674); test: Inhibition of JAK2 (unknown origin)
[6] = biological target: BMP-2-inducible protein kinase (Homo sapiens, UniProt Q9NSY1); test: Inhibition of BIKE (unknown origin)
[7] = Metabolic stability in mouse liver microsomes assessed as parent compound remaining at 0.5 uM incubated for 10 mins in presence of NADPH by LC-MS/MS analysis; assay type: ADME, Microsome; details: liver microsomes, read-out: Stability
[8] = biological target: Serine/threonine-protein kinase tousled-like 2 (Homo sapiens, UniProt Q86UE8); test: Inhibition of TLK2 (unknown origin)
[9] = biological target: MAP kinase-interacting serine/threonine-protein kinase 1 (Homo sapiens, UniProt Q9BUB5); test: Inhibition of MNK1 (unknown origin)
[10] = biological target: Serine/threonine-protein kinase N2 (Homo sapiens, UniProt Q16513); test: Inhibition of PKN2 (unknown origin)
[11] = biological target: Death-associated protein kinase 1 (Homo sapiens, UniProt P53355); test: Inhibition of DAPK1 (unknown origin)
[12] = biological target: AP2-associated protein kinase 1 (Mus musculus, UniProt Q3UHJ0); test: Displacement of 3H-LP-927443 from AAK1 in C57BL6 mouse brain homogenate assessed as inhibition constant incubated for 1 hr by liquid scintillation counter analysis; assay type: tissue-based
[13] = Metabolic stability in human liver microsomes assessed as parent compound remaining at 0.5 uM incubated for 10 mins in presence of NADPH by LC-MS/MS analysis; assay type: ADME, Microsome; details: read-out: Stability
[14] = biological target: T1, AP2-associated protein kinase 1 (Homo sapiens, UniProt Q2M2I8); test: Inhibition of bacterially expressed GST-Xa-tagged human AAK1 using 5-FAM-labelled Aha-KEEQSQITSQVTGQIGWR-NH2 peptide as substrate incubated for 3 hrs in presence of ATP by electrophoretic analysis
[15] = biological target: STE20/SPS1-related proline-alanine-rich protein kinase (Homo sapiens, UniProt Q9UEW8); test: Inhibition of STLK3 (unknown origin)
[16] = biological target: T1, AP2-associated protein kinase 1; test: Inhibition of full length human AAK1 expressed in HEK293F cells assessed as suppression of AP2 phosphorylation measured after 3 hrs by Western blot analysis based cellular assay; assay type: cell-based
[17] = biological target: Serine/threonine-protein kinase tousled-like 1 (Homo sapiens, UniProt Q9UKI8); test: Inhibition of TLK1 (unknown origin)
[18] = biological target: Death-associated protein kinase 3 (Homo sapiens, UniProt O43293); test: Inhibition of DAPK3 (unknown origin)
[19] = biological target: Dual specificity mitogen-activated protein kinase kinase 1 (Homo sapiens, UniProt Q02750); test: Inhibition of MEK1/MAP2K1 (unknown origin)
[20] = biological target: MAP kinase-interacting serine/threonine-protein kinase 2 (Homo sapiens, UniProt Q9HBH9); test: Inhibition of MNK2 (unknown origin)
[21] = biological target: T2, Homeodomain-interacting protein kinase 4 (Homo sapiens, UniProt Q8NE63); test: Inhibition of HIPK4 (unknown origin)
T2 sequence (Q8NE63 whole entry): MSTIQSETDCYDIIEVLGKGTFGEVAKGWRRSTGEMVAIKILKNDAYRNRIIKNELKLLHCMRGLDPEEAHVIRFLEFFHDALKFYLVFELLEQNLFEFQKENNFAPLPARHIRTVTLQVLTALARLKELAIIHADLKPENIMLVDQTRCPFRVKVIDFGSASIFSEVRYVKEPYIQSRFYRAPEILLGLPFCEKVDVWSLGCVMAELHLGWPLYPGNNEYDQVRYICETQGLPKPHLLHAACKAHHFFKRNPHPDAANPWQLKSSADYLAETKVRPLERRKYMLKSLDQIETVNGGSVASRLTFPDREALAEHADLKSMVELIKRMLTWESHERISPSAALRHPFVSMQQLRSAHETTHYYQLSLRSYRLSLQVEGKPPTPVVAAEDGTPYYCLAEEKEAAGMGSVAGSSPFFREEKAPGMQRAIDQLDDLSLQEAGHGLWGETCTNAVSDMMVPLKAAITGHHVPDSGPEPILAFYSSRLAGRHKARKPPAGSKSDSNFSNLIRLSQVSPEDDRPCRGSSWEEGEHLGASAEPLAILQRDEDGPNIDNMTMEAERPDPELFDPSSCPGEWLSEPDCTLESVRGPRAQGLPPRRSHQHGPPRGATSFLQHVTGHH

[22] = Ratio of drug concentration in spinal cord to plasma in STZ-induced diabetic peripheral neuropathic mechanical allodynia in overnight fasted Sprague-Dawley rat at 1 mg/kg, po measured at 5.5 hrs post dose; assay type: ADME, organism-based
[23] = Ratio of drug concentration in brain to plasma in CCI induced thermal hyperalgesia in Sprague-Dawley rat at 1 mg/kg, po measured at 5.5 hrs post dose; assay type: ADME, organism-based
[24] = Ratio of drug concentration in spinal cord to plasma in CCI induced thermal hyperalgesia in Sprague-Dawley rat at 1 mg/kg, po measured at 5.5 hrs post dose; assay type: ADME, organism-based
[25] = Brain concentration in STZ-induced diabetic peripheral neuropathic mechanical allodynia in overnight fasted Sprague-Dawley rat at 1 mg/kg, po measured at 5.5 hrs post dose; assay type: ADME, organism-based; details: read-out: Ct
[26] = Drug concentration in CCI induced thermal hyperalgesia in Sprague-Dawley rat spinal cord at 1 mg/kg, po measured after 5.5 hrs; assay type: ADME, organism-based; details: read-out: Ct
Rattus norvegicus [27] = test: Analgesic activity in STZ-induced diabetic peripheral neuropathic mechanical allodynia in overnight fasted Sprague-Dawley rat assessed as reduction in pain response by measuring paw withdrawal latency at 1 mg/kg, po measured after 5 hrs by Hargreaves test relative to control; assay type: functional; set-up: scale not given: the % may be the effect or the level left
[28] = Plasma concentration in STZ-induced diabetic peripheral neuropathic mechanical allodynia in overnight fasted Sprague-Dawley rat at 1 mg/kg, po measured at 5.5 hrs post dose; assay type: ADME, organism-based
[29] = Drug concentration in STZ-induced diabetic peripheral neuropathic mechanical allodynia in overnight fasted Sprague-Dawley rat spinal cord at 1 mg/kg, po measured after 5.5 hrs; assay type: ADME, organism-based; details: read-out: Ct
[30] = Ratio of drug concentration in brain to plasma in Sprague-Dawley rat at 3 mg/kg, po measured at 2 hrs post dose; assay type: ADME, organism-based
[31] = Brain concentration in CCI induced thermal hyperalgesia in Sprague-Dawley rat at 1 mg/kg, po measured at 5.5 hrs post dose; assay type: ADME, organism-based; details: read-out: Ct
[32] = Ratio of drug concentration in brain to plasma in STZ-induced diabetic peripheral neuropathic mechanical allodynia in overnight fasted Sprague-Dawley rat at 1 mg/kg, po measured at 5.5 hrs post dose; assay type: ADME, organism-based
[33] = Plasma concentration in CCI induced thermal hyperalgesia in Sprague-Dawley rat at 1 mg/kg, po measured at 5.5 hrs post dose; assay type: ADME, organism-based
Rattus norvegicus [34] = test: Analgesic activity in CCI induced thermal hyperalgesia in Sprague-Dawley rat assessed as reduction in thermal hyperalgesia by measuring paw withdrawal latency at 1 mg/kg, po measured after 5 hrs by Hargreaves test relative to control; assay type: functional; set-up: scale not given: the % may be the effect or the level left
[35] = biological target: Rho-associated protein kinase 2 (Homo sapiens, UniProt O75116); test: Inhibition of ROCK2 (unknown origin)
[36] = biological target: Dual specificity protein kinase CLK1 (Homo sapiens, UniProt P49759); test: Inhibition of CLK1 (unknown origin)
[37] = biological target: Dual specificity protein kinase CLK4 (Homo sapiens, UniProt Q9HAZ1); test: Inhibition of CLK4 (unknown origin)

T1 sequence (Q2M2I8 whole entry): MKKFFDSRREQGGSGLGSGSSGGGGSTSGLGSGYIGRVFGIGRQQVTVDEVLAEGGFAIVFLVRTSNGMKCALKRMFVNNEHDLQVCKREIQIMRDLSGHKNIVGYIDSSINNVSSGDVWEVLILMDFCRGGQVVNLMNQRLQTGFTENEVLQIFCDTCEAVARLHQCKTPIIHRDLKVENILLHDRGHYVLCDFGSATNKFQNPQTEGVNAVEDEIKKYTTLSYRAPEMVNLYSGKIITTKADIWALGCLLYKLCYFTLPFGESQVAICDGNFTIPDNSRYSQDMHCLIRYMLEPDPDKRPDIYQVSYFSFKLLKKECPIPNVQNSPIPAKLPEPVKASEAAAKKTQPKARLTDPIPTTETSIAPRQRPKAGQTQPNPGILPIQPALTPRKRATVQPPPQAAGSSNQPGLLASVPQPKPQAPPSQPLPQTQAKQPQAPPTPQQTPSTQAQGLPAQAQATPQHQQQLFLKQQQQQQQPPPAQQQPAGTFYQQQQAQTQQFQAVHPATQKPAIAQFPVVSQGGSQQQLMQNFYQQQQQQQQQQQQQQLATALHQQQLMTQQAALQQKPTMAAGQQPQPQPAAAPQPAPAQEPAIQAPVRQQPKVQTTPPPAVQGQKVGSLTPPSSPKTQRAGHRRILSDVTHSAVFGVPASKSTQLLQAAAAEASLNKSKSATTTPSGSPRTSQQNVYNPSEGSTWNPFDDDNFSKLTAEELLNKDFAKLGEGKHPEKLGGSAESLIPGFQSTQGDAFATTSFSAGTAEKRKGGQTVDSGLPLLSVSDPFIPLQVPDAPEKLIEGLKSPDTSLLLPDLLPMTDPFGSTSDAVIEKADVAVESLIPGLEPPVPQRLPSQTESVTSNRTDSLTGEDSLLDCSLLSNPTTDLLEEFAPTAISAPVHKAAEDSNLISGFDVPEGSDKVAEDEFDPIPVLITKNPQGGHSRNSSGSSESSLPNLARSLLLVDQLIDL
Cytochrome P450 3A4, sequence (P08684 whole entry): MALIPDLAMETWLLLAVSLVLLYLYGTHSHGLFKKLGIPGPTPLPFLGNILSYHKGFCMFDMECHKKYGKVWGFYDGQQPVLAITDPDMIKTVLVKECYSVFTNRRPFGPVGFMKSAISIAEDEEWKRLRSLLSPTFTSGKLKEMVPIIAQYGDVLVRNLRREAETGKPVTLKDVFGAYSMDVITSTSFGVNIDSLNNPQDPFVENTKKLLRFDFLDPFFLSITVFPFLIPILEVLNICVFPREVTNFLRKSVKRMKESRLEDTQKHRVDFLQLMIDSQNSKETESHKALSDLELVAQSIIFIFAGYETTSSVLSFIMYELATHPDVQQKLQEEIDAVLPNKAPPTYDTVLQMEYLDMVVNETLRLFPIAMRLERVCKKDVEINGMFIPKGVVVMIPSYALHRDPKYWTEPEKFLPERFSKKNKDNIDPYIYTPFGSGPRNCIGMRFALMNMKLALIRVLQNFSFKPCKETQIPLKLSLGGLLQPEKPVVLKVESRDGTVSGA
AP2-associated protein kinase 1 (Mus musculus, UniProt Q3UHJ0), sequence (Q3UHJ0 whole entry): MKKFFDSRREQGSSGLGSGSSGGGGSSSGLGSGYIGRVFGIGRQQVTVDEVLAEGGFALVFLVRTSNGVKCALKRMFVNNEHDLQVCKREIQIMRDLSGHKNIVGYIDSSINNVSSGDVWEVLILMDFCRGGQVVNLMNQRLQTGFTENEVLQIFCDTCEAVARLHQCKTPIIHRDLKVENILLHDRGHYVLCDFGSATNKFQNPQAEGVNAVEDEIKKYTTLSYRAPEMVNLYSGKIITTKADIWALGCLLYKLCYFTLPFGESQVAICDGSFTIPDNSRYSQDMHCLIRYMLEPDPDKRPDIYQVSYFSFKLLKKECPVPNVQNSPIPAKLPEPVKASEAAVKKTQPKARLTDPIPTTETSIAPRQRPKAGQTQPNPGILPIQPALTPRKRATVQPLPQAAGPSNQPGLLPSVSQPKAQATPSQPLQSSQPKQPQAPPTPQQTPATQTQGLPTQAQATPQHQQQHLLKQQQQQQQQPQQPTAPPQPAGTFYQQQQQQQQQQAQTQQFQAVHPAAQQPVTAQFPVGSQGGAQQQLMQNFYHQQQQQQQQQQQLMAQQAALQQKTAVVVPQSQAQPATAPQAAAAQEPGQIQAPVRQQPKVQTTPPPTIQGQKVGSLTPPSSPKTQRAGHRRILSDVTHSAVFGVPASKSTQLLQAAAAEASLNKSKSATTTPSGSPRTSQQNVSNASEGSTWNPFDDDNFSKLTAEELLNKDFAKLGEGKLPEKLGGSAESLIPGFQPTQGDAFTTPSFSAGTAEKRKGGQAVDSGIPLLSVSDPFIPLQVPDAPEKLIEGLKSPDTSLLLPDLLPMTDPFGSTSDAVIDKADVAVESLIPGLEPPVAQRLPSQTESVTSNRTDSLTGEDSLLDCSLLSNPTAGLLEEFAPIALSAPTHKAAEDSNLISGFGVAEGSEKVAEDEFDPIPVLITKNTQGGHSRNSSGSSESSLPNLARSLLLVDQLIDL
MAP kinase-interacting serine/threonine-protein kinase 2, sequence (Q9HBH9 whole entry): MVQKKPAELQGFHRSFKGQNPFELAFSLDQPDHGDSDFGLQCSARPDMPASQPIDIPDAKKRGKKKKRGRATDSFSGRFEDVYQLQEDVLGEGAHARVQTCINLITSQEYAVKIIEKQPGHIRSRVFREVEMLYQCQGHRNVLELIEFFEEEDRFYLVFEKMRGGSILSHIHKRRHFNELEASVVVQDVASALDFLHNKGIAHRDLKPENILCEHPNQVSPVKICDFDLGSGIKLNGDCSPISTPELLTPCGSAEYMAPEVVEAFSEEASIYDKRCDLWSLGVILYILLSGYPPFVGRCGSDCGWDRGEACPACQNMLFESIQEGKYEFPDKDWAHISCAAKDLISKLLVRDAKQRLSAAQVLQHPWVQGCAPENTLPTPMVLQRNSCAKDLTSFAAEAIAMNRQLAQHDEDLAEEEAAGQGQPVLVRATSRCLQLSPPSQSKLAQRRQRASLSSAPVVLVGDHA
Tyrosine-protein kinase JAK2, sequence (O60674 whole entry): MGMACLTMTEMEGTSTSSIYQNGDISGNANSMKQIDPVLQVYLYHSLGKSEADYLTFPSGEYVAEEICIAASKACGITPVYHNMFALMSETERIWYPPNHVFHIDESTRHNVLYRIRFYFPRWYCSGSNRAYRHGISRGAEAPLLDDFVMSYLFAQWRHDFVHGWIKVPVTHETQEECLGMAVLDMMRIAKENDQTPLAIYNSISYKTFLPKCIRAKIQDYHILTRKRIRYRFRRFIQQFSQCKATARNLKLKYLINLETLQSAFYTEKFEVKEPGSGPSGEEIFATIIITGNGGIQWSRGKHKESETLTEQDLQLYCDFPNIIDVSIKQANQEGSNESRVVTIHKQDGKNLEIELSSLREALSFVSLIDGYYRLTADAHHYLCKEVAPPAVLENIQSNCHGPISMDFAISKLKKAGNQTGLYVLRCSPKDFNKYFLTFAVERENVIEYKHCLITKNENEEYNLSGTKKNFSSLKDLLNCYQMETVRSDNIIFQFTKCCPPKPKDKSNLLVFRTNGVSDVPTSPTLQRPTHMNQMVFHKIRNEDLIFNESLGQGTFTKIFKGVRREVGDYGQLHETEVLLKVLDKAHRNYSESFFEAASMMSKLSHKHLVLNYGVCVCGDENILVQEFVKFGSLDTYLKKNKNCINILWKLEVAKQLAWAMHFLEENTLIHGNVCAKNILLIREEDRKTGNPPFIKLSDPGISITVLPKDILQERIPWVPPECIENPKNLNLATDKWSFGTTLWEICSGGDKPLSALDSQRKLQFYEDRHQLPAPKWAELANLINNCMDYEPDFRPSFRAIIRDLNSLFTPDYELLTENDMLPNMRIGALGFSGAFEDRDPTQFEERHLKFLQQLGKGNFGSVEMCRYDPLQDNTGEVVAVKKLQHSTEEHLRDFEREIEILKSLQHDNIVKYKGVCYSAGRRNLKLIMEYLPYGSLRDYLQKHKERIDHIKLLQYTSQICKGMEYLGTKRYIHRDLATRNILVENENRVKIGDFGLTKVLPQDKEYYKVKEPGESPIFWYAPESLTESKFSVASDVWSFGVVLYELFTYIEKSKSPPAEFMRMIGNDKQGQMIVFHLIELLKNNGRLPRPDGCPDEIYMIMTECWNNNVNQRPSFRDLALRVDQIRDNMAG
Dual specificity protein kinase CLK1, sequence (P49759 whole entry): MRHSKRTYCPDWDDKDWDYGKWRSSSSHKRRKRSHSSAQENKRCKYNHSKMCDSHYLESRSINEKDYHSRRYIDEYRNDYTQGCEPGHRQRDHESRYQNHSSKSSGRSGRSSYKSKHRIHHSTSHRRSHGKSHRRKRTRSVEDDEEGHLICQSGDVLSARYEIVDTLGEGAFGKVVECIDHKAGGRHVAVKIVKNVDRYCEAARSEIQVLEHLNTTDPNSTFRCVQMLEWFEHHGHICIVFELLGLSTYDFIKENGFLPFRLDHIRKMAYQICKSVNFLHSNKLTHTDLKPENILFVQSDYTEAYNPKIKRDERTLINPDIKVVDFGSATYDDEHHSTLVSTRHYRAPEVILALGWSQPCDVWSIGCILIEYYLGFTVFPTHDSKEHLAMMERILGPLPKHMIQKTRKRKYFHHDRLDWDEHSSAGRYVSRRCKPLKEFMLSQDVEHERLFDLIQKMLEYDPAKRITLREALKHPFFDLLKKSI
Dual specificity mitogen-activated protein kinase kinase 1, sequence (Q02750 whole entry): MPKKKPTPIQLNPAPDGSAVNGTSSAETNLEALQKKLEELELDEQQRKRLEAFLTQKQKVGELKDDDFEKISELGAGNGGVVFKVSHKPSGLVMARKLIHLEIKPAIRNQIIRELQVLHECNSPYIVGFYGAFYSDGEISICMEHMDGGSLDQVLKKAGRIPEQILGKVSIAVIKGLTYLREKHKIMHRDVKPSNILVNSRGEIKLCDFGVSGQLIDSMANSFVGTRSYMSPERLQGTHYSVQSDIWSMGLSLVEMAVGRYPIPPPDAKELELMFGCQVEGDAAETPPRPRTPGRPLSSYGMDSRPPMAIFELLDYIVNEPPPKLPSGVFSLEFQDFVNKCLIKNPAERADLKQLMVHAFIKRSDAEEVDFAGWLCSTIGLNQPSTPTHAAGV

IC50 [1]: 0.09 µM
remaining at 10 min, 0.5 µM [2]: 99%
IC50 (Cytochrome P450 3A4): > 20 µM
IC50 [4]: 0.65 µM
IC50 [5]: 1.6 µM
IC50 [6]: 0.03 µM
remaining at 10 min, 0.5 µM [7]: 72%
IC50 [8]: 1.4 µM
IC50 [9]: 0.12 µM
IC50 [10]: 0.14 µM
Ki [12]: 0.00017 µM
remaining at 10 min, 0.5 µM [13]: 93%
IC50 [14]: 0.0005 µM
IC50 [15]: 1.4 µM
IC50 [16]: 0.0012 µM
IC50 [17]: 1.2 µM
IC50 [19]: 1.2 µM
IC50 [20]: 1.2 µM
IC50 [21]: 1.1 µM
SMILES: COC(=O)Nc1cc(-c2ccc(OC[C@@](C)(N)CC(C)C)c(Cl)n2)ccn1
Activity [3]: 74%
IC50 [11]: 0.81 µM
IC50 [18]: 1.1 µM

Kp at 5.5 h [22]: 0.8
Kp at 5.5 h [23]: 1.2
Kp at 5.5 h [24]: 1
remaining at 10 min, 0.5 µM [2]: 80%
IC50 (Cytochrome P450 3A4): 8.9 µM
concentration at 5.5 h [25]: 0.19 µM
concentration at 5.5 h [26]: 0.27 µM
remaining at 10 min, 0.5 µM [7]: 79%
Ki [12]: 0.00052 µM
remaining at 10 min, 0.5 µM [13]: 90%
concentration at 5.5 h [28]: 0.19 µM
concentration at 5.5 h [29]: 0.15 µM
IC50 [14]: 0.0026 µM
IC50 [16]: 0.0016 µM
Kp at 2 h [30]: 1.5
concentration at 5.5 h [31]: 0.32 µM
Kp at 5.5 h [32]: 1
concentration at 5.5 h [33]: 0.27 µM
SMILES: CC(=O)Nc1cc(-c2ccc(OC[C@@H](N)CC(C)C)c(F)c2)ccn1
Activity (Rattus norvegicus [27]): 65%
Activity (Rattus norvegicus [34]): 56%

remaining at 10 min, 0.5 µM [2]: 80%
IC50 (Cytochrome P450 3A4): 2.2 µM
remaining at 10 min, 0.5 µM [7]: 86%
IC50 [35]: 1.1 µM
Ki [12]: 0.00015 µM
remaining at 10 min, 0.5 µM [13]: 95%
IC50 [14]: 0.001 µM
IC50 [36]: 1.7 µM
IC50 [37]: 0.59 µM
IC50 [20]: 0.9 µM
SMILES: COC(=O)Nc1cc(-c2cnc(OC[C@@](C)(N)CC(C)C)c(C#N)c2)ccn1
Activity [3]: 95%
